Test results reported in the supplement of paper PMC13386468.

Columns and labels:
Test in all cases: IC50 for competition of protein binding to Kinobeads
Details in all cases: assay detail: Kinobeads competition in P. falciparum blood-stage lysate
UniProt Q8IJX8 = target: UniProt Q8IJX8
UniProt Q8ILQ3 = target: UniProt Q8ILQ3
UniProt Q8IAU1 = target: UniProt Q8IAU1
UniProt Q8IC35 = target: UniProt Q8IC35
UniProt Q8ID33 = target: UniProt Q8ID33
UniProt Q8I3Z1 = target: UniProt Q8I3Z1
UniProt Q9TY94 = target: UniProt Q9TY94
UniProt Q8IBK8 = target: UniProt Q8IBK8
UniProt Q8IJR9 = target: UniProt Q8IJR9
UniProt Q8IHN4 = target: UniProt Q8IHN4
UniProt Q8ILS0 = target: UniProt Q8ILS0
UniProt O96271 = target: UniProt O96271
UniProt Q8II16 = target: UniProt Q8II16
UniProt Q8I431 = target: UniProt Q8I431
UniProt Q8IJW0 = target: UniProt Q8IJW0
UniProt Q8I328 = target: UniProt Q8I328
UniProt Q8IM01 = target: UniProt Q8IM01
UniProt Q8IKF0 = target: UniProt Q8IKF0
UniProt O96260 = target: UniProt O96260
UniProt Q8I5B3 = target: UniProt Q8I5B3
UniProt Q8I1U8 = target: UniProt Q8I1U8
UniProt O97240 = target: UniProt O97240
UniProt O97285 = target: UniProt O97285
UniProt Q8IJI7 = target: UniProt Q8IJI7
UniProt Q8IBP0 = target: UniProt Q8IBP0
UniProt Q8I3I6 = target: UniProt Q8I3I6
UniProt Q8IBT7 = target: UniProt Q8IBT7
UniProt Q8IJN8 = target: UniProt Q8IJN8
UniProt Q8IHT3 = target: UniProt Q8IHT3
UniProt C6KTE1 = target: UniProt C6KTE1
UniProt Q8IKB0 = target: UniProt Q8IKB0
A0A146LZZ4 = target: A0A146LZZ4
UniProt Q8I562 = target: UniProt Q8I562
UniProt O15770 = target: UniProt O15770
UniProt Q8I0V2 = target: UniProt Q8I0V2
UniProt Q8ILI2 = target: UniProt Q8ILI2
UniProt Q8IJM0 = target: UniProt Q8IJM0
UniProt Q8IJC7 = target: UniProt Q8IJC7
UniProt Q8IJR8 = target: UniProt Q8IJR8
UniProt Q8IBP8 = target: UniProt Q8IBP8
UniProt Q9TY99 = target: UniProt Q9TY99
A0A143ZZT8 = target: A0A143ZZT8
UniProt Q8IIA2 = target: UniProt Q8IIA2
UniProt Q8IIF0 = target: UniProt Q8IIF0
UniProt Q8IIJ8 = target: UniProt Q8IIJ8
UniProt Q8I526 = target: UniProt Q8I526
UniProt Q8IDF0 = target: UniProt Q8IDF0
UniProt C0H4S8 = target: UniProt C0H4S8
UniProt O97247 = target: UniProt O97247
UniProt Q8I2Z8 = target: UniProt Q8I2Z8
UniProt Q8ILV2 = target: UniProt Q8ILV2
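Further: native unpurified kinases from lysate captured on beads bearing immobilized kinase inhibitors, with bead-bound kinases quantified by mass spectrometry across compound doses.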

Chain of UniProt Q8IJR9 (Q8IJR9 whole entry): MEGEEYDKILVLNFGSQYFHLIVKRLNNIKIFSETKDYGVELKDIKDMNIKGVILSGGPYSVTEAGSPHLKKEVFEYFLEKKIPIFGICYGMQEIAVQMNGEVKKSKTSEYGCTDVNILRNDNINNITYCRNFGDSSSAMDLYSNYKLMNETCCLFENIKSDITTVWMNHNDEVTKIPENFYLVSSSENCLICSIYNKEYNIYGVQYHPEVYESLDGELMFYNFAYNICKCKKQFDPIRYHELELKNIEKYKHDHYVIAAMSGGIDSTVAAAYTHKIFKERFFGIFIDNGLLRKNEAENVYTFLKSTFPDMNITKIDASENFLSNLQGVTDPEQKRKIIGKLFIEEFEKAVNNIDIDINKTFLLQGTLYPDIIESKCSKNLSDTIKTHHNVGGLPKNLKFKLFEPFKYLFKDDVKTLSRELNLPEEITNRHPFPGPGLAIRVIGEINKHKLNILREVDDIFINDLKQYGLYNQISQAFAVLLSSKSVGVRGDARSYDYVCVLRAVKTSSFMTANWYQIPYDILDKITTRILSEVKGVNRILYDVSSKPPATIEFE
Chain of UniProt O97240 (O97240 whole entry): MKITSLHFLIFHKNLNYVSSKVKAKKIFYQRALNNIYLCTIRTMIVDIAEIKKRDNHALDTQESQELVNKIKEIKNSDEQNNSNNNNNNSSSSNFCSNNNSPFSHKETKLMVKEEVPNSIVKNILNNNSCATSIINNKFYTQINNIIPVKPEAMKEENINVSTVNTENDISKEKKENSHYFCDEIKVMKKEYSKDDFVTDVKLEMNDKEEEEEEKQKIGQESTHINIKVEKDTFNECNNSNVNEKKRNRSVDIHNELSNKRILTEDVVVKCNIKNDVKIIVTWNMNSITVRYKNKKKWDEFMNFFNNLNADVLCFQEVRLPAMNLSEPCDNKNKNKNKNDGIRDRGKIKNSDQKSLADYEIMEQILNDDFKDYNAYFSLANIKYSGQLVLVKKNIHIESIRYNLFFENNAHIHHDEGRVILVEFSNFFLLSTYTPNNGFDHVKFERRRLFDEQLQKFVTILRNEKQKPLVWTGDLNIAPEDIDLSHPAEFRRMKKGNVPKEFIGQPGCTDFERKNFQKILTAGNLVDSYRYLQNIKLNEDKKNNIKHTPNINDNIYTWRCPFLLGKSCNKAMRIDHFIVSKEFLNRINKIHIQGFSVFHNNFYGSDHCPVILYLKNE
Chain of UniProt Q8IJX8 (Q8IJX8 whole entry): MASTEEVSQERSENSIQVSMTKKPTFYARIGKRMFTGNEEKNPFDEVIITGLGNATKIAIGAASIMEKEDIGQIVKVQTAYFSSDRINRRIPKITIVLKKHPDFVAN
Chain of UniProt O15770 (O15770 whole entry): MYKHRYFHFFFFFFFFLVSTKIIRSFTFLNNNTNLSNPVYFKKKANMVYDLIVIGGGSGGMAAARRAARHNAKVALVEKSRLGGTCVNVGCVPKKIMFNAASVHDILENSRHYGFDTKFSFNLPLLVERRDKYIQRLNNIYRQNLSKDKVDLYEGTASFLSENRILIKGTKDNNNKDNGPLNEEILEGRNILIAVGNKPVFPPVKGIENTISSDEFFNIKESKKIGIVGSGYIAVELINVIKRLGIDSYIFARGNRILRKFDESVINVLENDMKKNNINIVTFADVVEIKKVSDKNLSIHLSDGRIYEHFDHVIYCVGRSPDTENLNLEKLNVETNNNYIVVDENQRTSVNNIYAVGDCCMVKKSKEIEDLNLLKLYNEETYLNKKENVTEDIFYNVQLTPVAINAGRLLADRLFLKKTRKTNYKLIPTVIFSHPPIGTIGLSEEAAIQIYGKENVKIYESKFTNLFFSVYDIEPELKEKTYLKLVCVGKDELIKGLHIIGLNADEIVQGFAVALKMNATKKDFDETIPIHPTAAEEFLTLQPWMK

Q: With `O=c1[nH]c2ccc(Cl)cc2c(NC2CN3CCC2CC3)c1-c1nc2ccccc2[nH]1` (stereo unspecified) [CHIR-124] as the compound, how does the IC50 (UniProt Q8IJX8) read?
A: > 20 µM

Q: And the IC50 (UniProt Q8ILQ3)?
A: > 20 µM

Q: What about the IC50 (UniProt Q8IAU1) of the same compound?
A: > 20 µM

Q: What about the IC50 (UniProt Q8IC35) of the same compound?
A: > 20 µM

Q: And the IC50 (UniProt Q8ID33)?
A: > 20 µM

Q: What about the IC50 (UniProt Q8I3Z1) of the same compound?
A: > 20 µM

Q: And the IC50 (UniProt Q9TY94)?
A: > 20 µM

Q: And the IC50 (UniProt Q8IBK8)?
A: > 20 µM

Q: And the IC50 (UniProt Q8IJR9)?
A: > 20 µM

Q: What about the IC50 (UniProt Q8IHN4) of the same compound?
A: > 20 µM

Q: And the IC50 (UniProt Q8ILS0)?
A: > 20 µM

Q: And the IC50 (UniProt O96271)?
A: > 20 µM

Q: And the IC50 (UniProt Q8II16)?
A: > 20 µM

Q: And the IC50 (UniProt Q8I431)?
A: > 20 µM

Q: And the IC50 (UniProt Q8IJW0)?
A: > 20 µM

Q: And the IC50 (UniProt Q8I328)?
A: > 20 µM

Q: And the IC50 (UniProt Q8IM01)?
A: > 20 µM

Q: What about the IC50 (UniProt Q8IKF0) of the same compound?
A: > 20 µM

Q: What about the IC50 (UniProt O96260) of the same compound?
A: > 20 µM

Q: What about the IC50 (UniProt Q8I5B3) of the same compound?
A: > 20 µM

Q: And the IC50 (UniProt Q8I1U8)?
A: > 20 µM

Q: And the IC50 (UniProt O97240)?
A: > 20 µM

Q: And the IC50 (UniProt O97285)?
A: > 20 µM

Q: And the IC50 (UniProt Q8IJI7)?
A: > 20 µM

Q: And the IC50 (UniProt Q8IBP0)?
A: > 20 µM

Q: What about the IC50 (UniProt Q8I3I6) of the same compound?
A: > 20 µM

Q: What about the IC50 (UniProt Q8IBT7) of the same compound?
A: > 20 µM

Q: What about the IC50 (UniProt Q8IJN8) of the same compound?
A: > 20 µM

Q: And the IC50 (UniProt Q8IHT3)?
A: > 20 µM

Q: What about the IC50 (UniProt C6KTE1) of the same compound?
A: > 20 µM

Q: What about the IC50 (UniProt Q8IKB0) of the same compound?
A: > 20 µM

Q: And the IC50 (A0A146LZZ4)?
A: > 20 µM

Q: And the IC50 (UniProt Q8I562)?
A: > 20 µM

Q: And the IC50 (UniProt O15770)?
A: > 20 µM

Q: And the IC50 (UniProt Q8I0V2)?
A: > 20 µM

Q: And the IC50 (UniProt Q8ILI2)?
A: > 20 µM

Q: What about the IC50 (UniProt Q8IJM0) of the same compound?
A: > 20 µM

Q: What about the IC50 (UniProt Q8IJC7) of the same compound?
A: > 20 µM

Q: And the IC50 (UniProt Q8IJR8)?
A: 0.649 µM

Q: What about the IC50 (UniProt Q8IBP8) of the same compound?
A: > 20 µM

Q: What about the IC50 (UniProt Q9TY99) of the same compound?
A: > 20 µM

Q: And the IC50 (A0A143ZZT8)?
A: > 20 µM

Q: What about the IC50 (UniProt Q8IIA2) of the same compound?
A: > 20 µM

Q: What about the IC50 (UniProt Q8IIF0) of the same compound?
A: > 20 µM

Q: And the IC50 (UniProt Q8IIJ8)?
A: > 20 µM

Q: What about the IC50 (UniProt Q8I526) of the same compound?
A: > 20 µM

Q: And the IC50 (UniProt Q8IDF0)?
A: > 20 µM

Q: And the IC50 (UniProt C0H4S8)?
A: > 20 µM

Q: What about the IC50 (UniProt O97247) of the same compound?
A: > 20 µM

Q: And the IC50 (UniProt Q8I2Z8)?
A: > 20 µM

Q: What about the IC50 (UniProt Q8ILV2) of the same compound?
A: > 20 µM
